Laboratory results taken from patent publication US20060142591A1, “DAPH analogs and inhibition of protein aggregation” (priority 2004, published 2006).

How the values were obtained:
NM protein fibers = biological target: T1, NM protein fibers (Saccharomyces cerevisiae, UniProt P05453); assay: NM disaggregation assay; format: biochemical, yeast
T1 construct: Soluble Sup35 NM protein (“NM”) was tested for aggregation
T1 sequence (P05453 1-253 limits assumed): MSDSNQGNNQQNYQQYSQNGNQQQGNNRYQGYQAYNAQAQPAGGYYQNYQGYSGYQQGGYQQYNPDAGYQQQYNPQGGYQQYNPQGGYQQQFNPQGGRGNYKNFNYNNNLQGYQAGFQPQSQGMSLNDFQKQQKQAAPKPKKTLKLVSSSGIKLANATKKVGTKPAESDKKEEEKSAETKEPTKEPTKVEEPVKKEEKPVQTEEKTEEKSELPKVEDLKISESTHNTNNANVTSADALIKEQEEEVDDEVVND
Method: For determining disaggregation of preformed aggregates, NM protein fibers (equivalent to 5 μM monomer) were incubated with DAPH (0-20 μM), DAPH analogs (0-20 μM) or DMSO (0-2% v/v). The assay mixture was incubated for 24 hr at 25° C., then tested for Congo Red or Thioflavin T binding to determine the extent of NM fibers remaining.
(§1) Congo red was added to NM aggregation, NM disaggregation or NM seed reaction mixtures following incubation to a final concentration of 10 μM. After 30 min at 25° C., absorbances at 320, 477, and 540 nm were determined. Congo red dye binding was measured by using the equation [(OD540/25,295)−(OD477/46,306)] (Klunk et al., J. Histochem. Cytochem. 37:1273-1279, 1989) as described by Schirmer and Lindquist (Proc. Natl. Acad. Sci USA 94:13932-13937, 1997).
To measure β-sheet formation, ThT was added to protein or peptide reaction mixtures, such as Aβ samples or NM aggregation, NM disaggregation or NM seed reaction mixtures following incubation and fluorescent measurements were read according to standard procedures.
For measurement, each sample preferably is split into multiple wells of a 96-well black-bottom plate (e.g., catalog no. 35-3943, VWR International, Westchester, Pa.). ThT fluorescence is measured at room temperature (e.g., in a Fluoroskan II at […] or a FLUOstar Optima plate-reader (BMG Lab Technologies, Durham, N.C.) at Ex=440 nm and Em=480 nm). The ThT fluorescence spectrum is measured in an spectrofluorimeter (e.g., f4500, Hitachi, Tokyo) at Ex=435 nm and Em=450-550 nm.

[1] = system: RML strain of mouse scrapie; format: in vivo, CD1 mice
Aβ fibrils = Aβ fibrils (Homo sapiens, UniProt P05067); assay: Reversal of preformed Aβ fibrils, observed by EM; format: biochemical; settings: Aβ aggregated 24 h at pH 7.4, then another 24 h with equimolar compound; vehicle 1% DMSO
Chain of Aβ fibrils (P05067 672-713 limits assumed): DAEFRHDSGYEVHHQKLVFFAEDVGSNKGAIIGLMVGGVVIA
Method: Aβ42Total is unfractionated synthetic Aβ42 that was dissolved in water at pH 8-9 by using NH3 or at pH 10-11 by using dilute NaOH and stored at −40° C. Experimental samples were prepared by diluting the stock solution of Aβ42 to 10 μM (unless noted otherwise) in Tyrode's solution 2 mM Ca (150 mM NaCl/3 mM KCl/10 mM Hepes, pH 7.4/2 mM CaCl2/10 mM D-glucose, pH 7.4/0.02% Na azide). The synthetic Aβ42 was dissolved in water at a pH of ˜8 and then stored at −20° C. until diluted into Tyrode's Solution/2 mM Ca (pH 7.4). This preparation is “Aβ42Total”. To aggregate for use in experiments, it was preincubated for 24 or 48 h at 37° C. without stirring. Negative-staining EM was used to visualize the kinetics and morphology of Aβ42 fibrillization over time, with and without the presence of DAPH analogs. Samples of 10 μM seedless Aβ42 (Aβ4230k) were incubated for a predetermined amount of time at 37° C. and vigorously vortex mixed immediately before and after incubation. Very small volumes, typically 5 μl, of each sample were absorbed for 2-4 min onto glow-discharged, carbon-coated, Formvar-filmed 400 mesh copper grids and gently wicked away with filter paper. […] Measurements were analyzed, and width-distribution histograms were produced by using EXCEL 98 (Microsoft). […]

Sup35 NM protein [2] = biological target: T2, Sup35 NM protein (Saccharomyces cerevisiae, UniProt P05453); assay: NM seed assay; format: biochemical, yeast; settings: disaggregated monomers used as seed at 2% or 5%
T2 construct: Soluble Sup35 NM protein (“NM”) was tested for aggregation
T2 sequence (P05453 1-253 limits assumed): T1 sequence (P05453 1-253 limits assumed)
Method: Monomers of NM disaggregated by treatment with DAPH and DAPH analogs (see below) were tested for the ability to “seed” new NM fibers. Disaggregated monomers were used at 2% or 5% as described above for the NM aggregation assay.
as §1

Sup35 NM protein [3] = biological target: T2, Sup35 NM protein; assay: NM aggregation assay; format: biochemical, yeast; settings: soluble NM 5 μM
Method: Soluble Sup35 NM protein (“NM”) was tested for aggregation in the presence of DAPH, DAPH analogs or vehicle control (DMSO). NM protein (5 μM) was aggregated in the presence of DAPH (0-20 μM), DAPH analogs (0-20 μM) or DMSO (0-2% v/v). The assay mixture was incubated for 24 hr at 25° C., then tested for Congo Red binding to determine the extent of NM fiber formation.
as §1
Soluble Sup35 NM (“NM”) at 5 μM was tested for aggregation in the presence of DAPH, DAPH analogs or vehicle control (DMSO). Aggregation of NM was inhibited by up to 100% (see FIG. 1). Inhibition of NM aggregation was concentration dependent.

Aβ42Total = Aβ42Total (Homo sapiens, UniProt P05067); assay: Reversal of aggregated Aβ42Total fibrils, ThT assay; format: biochemical; settings: depends on the concentration of compound
Chain of Aβ42Total (P05067 672-713 limits assumed): as above
Method: Aβ42Total is unfractionated synthetic Aβ42 that was dissolved in water at pH 8-9 by using NH3 or at pH 10-11 by using dilute NaOH and stored at −40° C. Experimental samples were prepared by diluting the stock solution of Aβ42 to 10 μM (unless noted otherwise) in Tyrode's solution 2 mM Ca (150 mM NaCl/3 mM KCl/10 mM Hepes, pH 7.4/2 mM CaCl2/10 mM D-glucose, pH 7.4/0.02% Na azide). The synthetic Aβ42 was dissolved in water at a pH of ˜8 and then stored at −20° C. until diluted into Tyrode's Solution/2 mM Ca (pH 7.4). This preparation is “Aβ42Total”. To aggregate for use in experiments, it was preincubated for 24 or 48 h at 37° C. without stirring. To measure β-sheet formation, ThT was added to protein or peptide reaction mixtures, such as Aβ samples or NM aggregation, NM disaggregation or NM seed reaction mixtures following incubation and fluorescent measurements were read according to standard procedures. […] ThT fluorescence is measured at room temperature (e.g., in a Fluoroskan II at […] or a FLUOstar Optima plate-reader (BMG Lab Technologies, Durham, N.C.) at Ex=440 nm and Em=480 nm). The ThT fluorescence spectrum is measured in an spectrofluorimeter (e.g., f4500, Hitachi, Tokyo) at Ex=435 nm and Em=450-550 nm. Fibrils of aggregated Aβ42Total give a strong ThT fluorescence signal, indicating high β-sheet content.

amyloid β (Aβ) fibers = amyloid β (Aβ) fibers (Homo sapiens, UniProt P05067); settings: Blanchard et al., PNAS 101:14326-14332, 2004; cited from earlier work
Chain of amyloid β (Aβ) fibers (P05067 672-713 limits assumed): as above

Aβ4230k = Aβ4230k (Homo sapiens, UniProt P05067); assay: Coincubation with seedless Aβ42 (fibrillization), observed by EM; format: biochemical
Chain of Aβ4230k (P05067 672-713 limits assumed): as above

[4] = 1% brain homogenate incubated 48 hours with compound, lower doses of infectivity, log rank test

Structure (SMILES)	disaggregation of preformed NM fibers as compared to the DMSO control (NM protein fibers; preformed NM aggregates, FIGS. 2 and 3)	dissolution of NM fibers as measured by Congo Red binding (NM protein fibers; preformed NM fibers, FIG. 2)	dissolution of NM fibers as measured by ThT fluorescence (NM protein fibers; preformed NM fibers, FIG. 3)	effect on survival / prion titers (in words) [1, 4]	effect of treatment at high doses of infectivity ([1]; high doses of infectivity)	reversal of aggregation of Aβ fibrils as determined by EM (Aβ fibrils)	ability of NM protein to reform NM fibers following disaggregation (Sup35 NM protein [2])	effect on NM fiber assembly / NM aggregation (in words) (Sup35 NM protein [3])	inhibition of NM aggregation (Sup35 NM protein [3]; compound 0-20 μM, 24 hr at 25° C., Congo Red binding, FIG. 1, concentration dependent)	time for reversal of the fibrils, as detected by the ThT assay (Aβ42Total)	disaggregation of amyloid β (Aβ) fibers (amyloid β (Aβ) fibers)	elimination of higher-order structure, EM studies (Aβ4230k; 24 h incubation)	elimination of the usual fibrils, as observed by EM (Aβ4230k; coincubation of Aβ4230k with equimolar compound (10:10 μM), 1% DMSO)	median survival longer than DMSO controls ([1]; 1% brain homogenate incubated 48 hours with compound, lower doses of infectivity, CD1 mice n=4 per group, log rank test)
O=C1NC(=O)c2cc(Nc3ccccc3)c(Nc3ccccc3)cc21 [DAPH, 4,5-dianilinophthalimide]	effective in disaggregation of preformed fibers	partially dissolve NM fibers	partially dissolve NM fibers	did not significantly alter survival	not observed	reversed the aggregation of the Aβ fibrils	essentially unable to reform NM fibers	antagonizes NM fiber assembly	up to 100%	takes only very few minutes	can disaggregate amyloid β (Aβ) fibers	nearly complete elimination of higher-order structure	almost complete elimination of the usual fibrils	
COc1ccc(Nc2cc3c(cc2Nc2ccc(OC)cc2)C(=O)NC3=O)cc1 [DAPH-12, 5,6-Bis-(4-methoxy-phenylamino)-isoindole-1,3-dione]				reduction in prion titers						takes only very few minutes				at least 60 days
